Test results published in article PMC6704710, “Preclinical evaluation of 3D185, a novel potent inhibitor of FGFR1/2/3 and CSF-1R, in FGFR-dependent and macrophage-dominant cancer models” (Journal of Experimental & Clinical Cancer Research : CR, 2019).

Tests used:
FGFR1(V561M)(h) = FGFR1(V561M)(h) (Homo sapiens, UniProt P11362, V561M); assay: Eurofins kinase panel; type: biochemical
[1] = system: VEGF-induced primary HUVECs; assay: VEGF-induced HUVEC proliferation (CCK-8); type: cell-based; settings: Homo sapiens, VEGF 100 ng/mL, 48 h
Experimental: Fig. 1 3D185 is a dual FGFR1/2/3 and CSF-1R inhibitor with high selectivity. a Chemical structure of 3D185. […]. H, A broad kinase profile of 3D185 against 372 protein kinases. […]. Representative data from three independent experiments are shown
(§1) The cancer cell lines indicated in Figure 3 were seeded in 96-well plates at a low density in growth medium. The next day, appropriate controls or the designated concentrations of the compounds were added to each well, and the cells were incubated for 72 h. HUVECs (passage 3) were seeded in 96-well plates in growth medium overnight and transferred to serum-free medium for 24 h. The following day, appropriate controls or the designated concentrations of the compounds were added to each well, and 100 ng/mL growth factor (bFGF or VEGF) was added to the indicated wells. The cells were incubated for 48 h. Finally, cell proliferation was determined using a sulforhodamine B (SRB) assay or a cell counting kit-8 (CCK-8) assay. […] IC50 values for proliferation curves were calculated using a 4-parameter logistic nonlinear regression model with SoftMax Pro Software (Molecular Devices, San Jose, USA).

[2] = system: 372 human recombinant kinases; assay: Eurofins kinase panel, overall selectivity; type: biochemical
Experimental: Active FGFR1–4, VEGFR1, KDR, VEGFR3, PDGFRα and PDGFRβ proteins were purchased from Eurofins (Fremont, United States), and kinase activity was assessed using ELISA, as previously reported. The broader kinase selectivity profile of 3D185 (0.01, 0.1, and 1 μM) was determined by Eurofins by screening the compound against 372 human recombinant kinases. Increasing concentrations of ATP were diluted for the kinase reaction in the ATP competition assay. CSF-1R kinase activity was analyzed using the Z’-LYTE™ Kinase Assay Kit (Thermo Fisher, United States). The assay formats are described in the SelectScreen Kinase Profiling Service Zlyte protocol. IC50 values were calculated by dose-response curve fitting using Prism (Graph Pad).

ErbB4(h) = molecular target: T1, ErbB4(h) (Homo sapiens, UniProt Q15303); assay: Eurofins kinase panel; type: biochemical; settings: read-out: Inhibition rate (%)
T1 construct: purchased Eurofins (KinaseProfiler)

HCC1954 = assay: Cell proliferation assay; type: cell-based; settings: Homo sapiens, Fig. 2G
Experimental: as §1

A375 = assay: Cell proliferation assay; type: cell-based; settings: Homo sapiens, A-375; Fig. 2G
Experimental: as §1

MKN28 = assay: Cell proliferation assay; type: cell-based; settings: Homo sapiens, MKN-28; Fig. 2G
Experimental: as §1

NCI-H460 = assay: Cell proliferation assay; type: cell-based; settings: Homo sapiens, Fig. 2G
Experimental: as §1

MKN1 = assay: Cell proliferation assay; type: cell-based; settings: Homo sapiens, MKN-1; Fig. 2G
Experimental: as §1

CAL51 = assay: Cell proliferation assay; type: cell-based; settings: Homo sapiens, CAL-51; Fig. 2G
Experimental: as §1

MDA-MB-453 = assay: Cell proliferation assay; type: cell-based; settings: Homo sapiens, Fig. 2G
Experimental: as §1

NCI-H1299 = assay: Cell proliferation assay; type: cell-based; settings: Homo sapiens, Fig. 2G
Experimental: as §1

BGC-823 = assay: Cell proliferation assay; type: cell-based; settings: Homo sapiens, Fig. 2G
Experimental: as §1

T47D = assay: Cell proliferation assay; type: cell-based; settings: Homo sapiens, Fig. 2G
Experimental: as §1

EBC-1 = assay: Cell proliferation assay; type: cell-based; settings: Homo sapiens, Fig. 2G
Experimental: as §1

HCC78 = assay: Cell proliferation assay; type: cell-based; settings: Homo sapiens, Fig. 2G
Experimental: as §1

NCI-H2444 = assay: Cell proliferation assay; type: cell-based; settings: Homo sapiens, Fig. 2G
Experimental: as §1

SK-BR-3 = assay: Cell proliferation assay; type: cell-based; settings: Homo sapiens, Fig. 2G
Experimental: as §1

NCI-H1975 = assay: Cell proliferation assay; type: cell-based; settings: Homo sapiens, Fig. 2G
Experimental: as §1

NCI-H520 = assay: Cell proliferation assay; type: cell-based; settings: Homo sapiens, Fig. 2G
Experimental: as §1

SGC-7901 = assay: Cell proliferation assay; type: cell-based; settings: Homo sapiens, Fig. 2G
Experimental: as §1

HCC366 = assay: Cell proliferation assay; type: cell-based; settings: Homo sapiens, Fig. 2G
Experimental: as §1

MCF-7 = assay: Cell proliferation assay; type: cell-based; settings: Homo sapiens, MCF7; Fig. 2G
Experimental: as §1

MKN45 = assay: Cell proliferation assay; type: cell-based; settings: Homo sapiens, MKN-45; Fig. 2G
Experimental: as §1

WNK2(h) = molecular target: T2, WNK2(h) (Homo sapiens, UniProt Q9Y3S1); assay: Eurofins kinase panel; type: biochemical; settings: read-out: Inhibition rate (%)
T2 construct: purchased Eurofins (KinaseProfiler)
T2 sequence (Q9Y3S1 whole entry): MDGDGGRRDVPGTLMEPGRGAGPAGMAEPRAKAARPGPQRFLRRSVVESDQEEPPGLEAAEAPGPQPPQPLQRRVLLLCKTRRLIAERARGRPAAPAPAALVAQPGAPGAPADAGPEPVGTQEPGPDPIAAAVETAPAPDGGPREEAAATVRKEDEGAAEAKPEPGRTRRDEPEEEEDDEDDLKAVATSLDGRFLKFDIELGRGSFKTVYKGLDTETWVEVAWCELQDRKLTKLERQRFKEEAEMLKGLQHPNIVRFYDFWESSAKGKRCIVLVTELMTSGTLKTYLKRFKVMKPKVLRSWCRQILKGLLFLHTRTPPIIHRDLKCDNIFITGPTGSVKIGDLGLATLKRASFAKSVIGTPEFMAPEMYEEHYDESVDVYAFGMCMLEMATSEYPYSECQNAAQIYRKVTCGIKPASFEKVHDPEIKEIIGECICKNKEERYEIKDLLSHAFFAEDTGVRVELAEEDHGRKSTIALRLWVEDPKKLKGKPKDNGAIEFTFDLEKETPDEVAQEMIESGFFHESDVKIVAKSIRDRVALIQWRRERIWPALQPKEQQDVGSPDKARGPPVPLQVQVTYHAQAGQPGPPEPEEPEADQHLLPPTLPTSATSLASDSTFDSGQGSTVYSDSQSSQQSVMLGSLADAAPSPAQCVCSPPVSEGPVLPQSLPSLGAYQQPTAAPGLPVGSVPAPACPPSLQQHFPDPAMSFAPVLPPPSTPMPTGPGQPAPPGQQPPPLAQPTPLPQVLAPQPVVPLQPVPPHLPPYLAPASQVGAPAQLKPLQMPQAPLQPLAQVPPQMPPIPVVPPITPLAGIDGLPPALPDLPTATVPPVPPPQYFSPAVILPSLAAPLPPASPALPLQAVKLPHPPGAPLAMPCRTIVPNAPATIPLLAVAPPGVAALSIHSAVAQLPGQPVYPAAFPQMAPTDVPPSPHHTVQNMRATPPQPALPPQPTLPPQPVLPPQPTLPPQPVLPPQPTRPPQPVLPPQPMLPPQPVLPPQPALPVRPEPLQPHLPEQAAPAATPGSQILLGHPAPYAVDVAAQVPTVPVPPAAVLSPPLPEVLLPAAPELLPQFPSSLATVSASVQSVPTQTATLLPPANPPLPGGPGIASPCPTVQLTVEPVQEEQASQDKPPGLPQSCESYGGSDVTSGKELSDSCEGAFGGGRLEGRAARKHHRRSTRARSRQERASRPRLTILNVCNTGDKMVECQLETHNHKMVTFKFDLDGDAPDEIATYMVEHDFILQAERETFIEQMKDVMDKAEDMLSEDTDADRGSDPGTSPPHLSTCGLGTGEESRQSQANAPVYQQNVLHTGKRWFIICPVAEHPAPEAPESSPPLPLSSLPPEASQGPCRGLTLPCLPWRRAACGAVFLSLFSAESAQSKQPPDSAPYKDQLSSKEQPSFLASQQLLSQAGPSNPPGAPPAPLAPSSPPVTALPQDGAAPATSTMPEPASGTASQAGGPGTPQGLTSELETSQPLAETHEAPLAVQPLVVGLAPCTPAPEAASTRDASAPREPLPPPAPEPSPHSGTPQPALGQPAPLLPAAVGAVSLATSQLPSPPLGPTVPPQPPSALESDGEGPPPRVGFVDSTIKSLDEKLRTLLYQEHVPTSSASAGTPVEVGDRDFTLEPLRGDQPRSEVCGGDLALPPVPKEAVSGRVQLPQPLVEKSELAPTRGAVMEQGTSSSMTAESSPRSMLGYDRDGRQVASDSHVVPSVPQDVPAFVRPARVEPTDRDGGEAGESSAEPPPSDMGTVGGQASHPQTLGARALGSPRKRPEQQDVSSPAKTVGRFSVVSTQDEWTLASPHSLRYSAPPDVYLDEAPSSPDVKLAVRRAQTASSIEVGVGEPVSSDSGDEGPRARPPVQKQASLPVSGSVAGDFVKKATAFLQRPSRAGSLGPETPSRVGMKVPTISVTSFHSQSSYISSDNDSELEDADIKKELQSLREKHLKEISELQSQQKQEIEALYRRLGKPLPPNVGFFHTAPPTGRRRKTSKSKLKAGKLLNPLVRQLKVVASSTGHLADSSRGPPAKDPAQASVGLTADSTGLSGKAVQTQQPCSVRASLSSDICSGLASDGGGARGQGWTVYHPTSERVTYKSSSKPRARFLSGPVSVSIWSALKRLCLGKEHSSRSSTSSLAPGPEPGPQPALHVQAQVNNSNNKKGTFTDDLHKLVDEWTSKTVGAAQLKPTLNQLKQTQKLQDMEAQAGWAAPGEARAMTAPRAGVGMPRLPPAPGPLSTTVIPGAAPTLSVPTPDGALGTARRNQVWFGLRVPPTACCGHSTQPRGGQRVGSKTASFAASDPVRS

FGFR1(V561M)(h), sequence (P11362 22-822 V561M): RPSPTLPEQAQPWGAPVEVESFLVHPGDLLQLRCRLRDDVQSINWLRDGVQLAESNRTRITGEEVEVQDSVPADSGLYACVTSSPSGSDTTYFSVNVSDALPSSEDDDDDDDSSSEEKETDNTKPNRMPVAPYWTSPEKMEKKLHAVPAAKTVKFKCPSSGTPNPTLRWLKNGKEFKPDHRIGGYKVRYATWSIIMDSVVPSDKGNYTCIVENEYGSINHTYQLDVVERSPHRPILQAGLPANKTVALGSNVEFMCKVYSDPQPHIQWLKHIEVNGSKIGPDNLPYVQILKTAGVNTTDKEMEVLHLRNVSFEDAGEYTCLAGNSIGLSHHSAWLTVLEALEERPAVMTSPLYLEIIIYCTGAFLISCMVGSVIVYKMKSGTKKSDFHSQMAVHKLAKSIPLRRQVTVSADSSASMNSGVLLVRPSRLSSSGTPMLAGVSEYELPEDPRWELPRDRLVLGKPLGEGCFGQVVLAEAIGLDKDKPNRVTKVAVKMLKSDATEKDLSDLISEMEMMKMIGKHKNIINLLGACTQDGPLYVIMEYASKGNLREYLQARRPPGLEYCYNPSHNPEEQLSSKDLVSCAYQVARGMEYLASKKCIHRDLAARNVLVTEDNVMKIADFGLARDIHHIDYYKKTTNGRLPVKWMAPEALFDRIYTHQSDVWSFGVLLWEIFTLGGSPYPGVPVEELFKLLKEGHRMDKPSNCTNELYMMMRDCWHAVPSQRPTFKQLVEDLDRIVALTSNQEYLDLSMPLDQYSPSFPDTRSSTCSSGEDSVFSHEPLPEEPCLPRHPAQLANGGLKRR
T1 sequence (Q15303 26-1308): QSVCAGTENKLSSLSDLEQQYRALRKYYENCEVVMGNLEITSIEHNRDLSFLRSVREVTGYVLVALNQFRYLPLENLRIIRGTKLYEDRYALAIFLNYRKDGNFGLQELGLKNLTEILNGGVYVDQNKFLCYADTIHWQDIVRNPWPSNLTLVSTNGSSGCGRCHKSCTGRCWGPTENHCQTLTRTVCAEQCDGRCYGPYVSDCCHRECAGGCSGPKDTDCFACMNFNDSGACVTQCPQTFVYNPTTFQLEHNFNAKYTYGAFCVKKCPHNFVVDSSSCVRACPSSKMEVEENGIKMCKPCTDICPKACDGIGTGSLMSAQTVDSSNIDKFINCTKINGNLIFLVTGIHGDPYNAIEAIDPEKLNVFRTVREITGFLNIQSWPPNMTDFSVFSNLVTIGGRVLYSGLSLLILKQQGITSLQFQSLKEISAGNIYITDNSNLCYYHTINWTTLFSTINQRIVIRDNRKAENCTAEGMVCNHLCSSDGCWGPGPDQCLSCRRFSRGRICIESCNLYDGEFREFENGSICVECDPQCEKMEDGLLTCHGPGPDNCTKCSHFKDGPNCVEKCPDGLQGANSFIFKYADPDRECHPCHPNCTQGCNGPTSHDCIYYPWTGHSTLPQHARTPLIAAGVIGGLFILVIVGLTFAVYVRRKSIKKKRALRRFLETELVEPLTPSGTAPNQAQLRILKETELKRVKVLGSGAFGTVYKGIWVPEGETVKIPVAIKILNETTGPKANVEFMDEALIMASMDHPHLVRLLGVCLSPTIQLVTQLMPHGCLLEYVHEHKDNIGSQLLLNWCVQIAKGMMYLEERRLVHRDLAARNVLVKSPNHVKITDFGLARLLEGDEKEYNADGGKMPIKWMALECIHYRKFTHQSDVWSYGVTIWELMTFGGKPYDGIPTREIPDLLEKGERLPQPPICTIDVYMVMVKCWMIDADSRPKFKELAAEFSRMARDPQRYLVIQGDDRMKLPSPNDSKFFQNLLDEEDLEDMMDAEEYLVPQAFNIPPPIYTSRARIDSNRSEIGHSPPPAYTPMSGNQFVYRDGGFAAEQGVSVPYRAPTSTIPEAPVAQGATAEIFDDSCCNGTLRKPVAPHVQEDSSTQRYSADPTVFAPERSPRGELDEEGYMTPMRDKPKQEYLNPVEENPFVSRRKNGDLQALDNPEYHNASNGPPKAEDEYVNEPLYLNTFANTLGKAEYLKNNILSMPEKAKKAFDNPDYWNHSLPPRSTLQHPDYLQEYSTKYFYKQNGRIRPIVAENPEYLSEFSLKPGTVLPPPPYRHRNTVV

Compound: COc1cc(OC)c(Cl)c(-c2ccc3c(NC(=O)c4ccc(N5CCNC(C)(C)C5)cc4)n[nH]c3n2)c1Cl [3D185]
- IC50 (FGFR1(V561M)(h); estimated from 372-kinase panel): < 10 nM
- inhibition at 0.01 µM (FGFR1(V561M)(h); read-out: Inhibition rate (%)): 58%
- inhibition at 0.1 µM (FGFR1(V561M)(h); read-out: Inhibition rate (%)): 94%
- inhibition at 1 µM (FGFR1(V561M)(h); read-out: Inhibition rate (%)): 100%
- IC50 [1]: 88.1 nM
- selectivity for FGFR1 over other kinases ([2]; 17 kinases): > 20 fold
- selectivity for FGFR1 over other kinases ([2]; 349 kinases): greater than 200 fold
- inhibition at 0.01 µM (ErbB4(h); 10 nM): -2%
- inhibition at 0.1 µM (ErbB4(h); 100 nM): -1%
- inhibition at 1 µM (ErbB4(h); 1000 nM): 28%
- IC50 (HCC1954): > 1000 nM
- IC50 (A375): > 1000 nM
- IC50 (MKN28): > 1000 nM
- IC50 (NCI-H460): > 1000 nM
- IC50 (MKN1): > 1000 nM
- IC50 (CAL51): > 1000 nM
- IC50 (MDA-MB-453): > 1000 nM
- IC50 (NCI-H1299): > 1000 nM
- IC50 (BGC-823): > 1000 nM
- IC50 (T47D): > 1000 nM
- IC50 (EBC-1): > 1000 nM
- IC50 (HCC78): > 1000 nM
- IC50 (NCI-H2444): > 1000 nM
- IC50 (SK-BR-3): > 1000 nM
- IC50 (NCI-H1975): > 1000 nM
- IC50 (NCI-H520): > 1000 nM
- IC50 (SGC-7901): > 1000 nM
- IC50 (HCC366): > 1000 nM
- IC50 (MCF-7): > 1000 nM
- IC50 (MKN45): > 1000 nM
- inhibition at 0.01 µM (WNK2(h); 10 nM): 0%
- inhibition at 0.1 µM (WNK2(h); 100 nM): -1%
- inhibition at 1 µM (WNK2(h); 1000 nM): 22%
